The structures appear in SMILES notation.

This experiment deals with T1, PIP4K2C (Homo sapiens, UniProt Q8TBX8).
T1 sequence (Q8TBX8 1-421): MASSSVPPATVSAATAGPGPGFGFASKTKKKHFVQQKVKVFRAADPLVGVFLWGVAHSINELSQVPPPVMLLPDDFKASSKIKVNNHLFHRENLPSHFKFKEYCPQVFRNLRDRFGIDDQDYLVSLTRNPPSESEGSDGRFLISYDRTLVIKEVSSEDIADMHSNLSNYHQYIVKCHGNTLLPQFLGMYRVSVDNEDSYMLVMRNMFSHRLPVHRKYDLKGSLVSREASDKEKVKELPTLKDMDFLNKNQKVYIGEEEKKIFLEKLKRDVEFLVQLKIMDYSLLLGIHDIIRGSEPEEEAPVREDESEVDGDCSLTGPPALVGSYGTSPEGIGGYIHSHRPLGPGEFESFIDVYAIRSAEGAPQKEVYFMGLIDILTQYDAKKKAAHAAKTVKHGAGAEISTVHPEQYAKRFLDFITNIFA
Description: HiBiT PIP4K2C degradation assay in MOLT-4 cells (endogenous PIP4K2C C-terminally tagged with HiBiT). The class given is cell-based. Conditions: 6 hours of incubation time, rather than 24 hours; MOLT-4, top concentration 10 micromolar; read-out: HiBIT-degradation MOLT4 PIP4k2C DC50 (6 hours, marked *). More on the design: untagged in primary human PBMCs and monocyte-derived dendritic cells. In outline: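 DC50 derived by Hill fit of luminescence from Nano-Glo HiBiT lytic detection. Cells were HiBiT knock-in MOLT-4 (C-terminal tag on endogenous PIP4K2C), exposed 6 h or 24 h at 37 C to compound, top concentration 10 micromolar, 3-fold steps, 10 points, duplicates.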
Regarding `O=C1CCC(Nc2ccc(C3CCN(CC4(O)CCN(C(=O)[C@H]5CC[C@H](Nc6ncc(F)c(-c7cccc(-n8ccccc8=O)c7)n6)CC5)CC4)CC3)c(F)c2)C(=O)N1` (stereo partly drawn) [Compound 409, trans-3-((3-fluoro-4-(1-((1-(-4-((5-fluoro-4-(3-(2-oxopyridin-1(2H)-yl)phenyl)pyrimidin-2-yl)amino)cyclohexane-1-carbonyl)-4-hydroxypiperidin-4-yl)methyl)piperidin-4-yl)phenyl)amino)piperidine-2,6-dione], the DC50 was less than 500 nM. With `O=C1CCC(Nc2ccc(N3CCC(O)(CN4CCN(C(=O)[C@H]5CC[C@H](Nc6ncc(F)c(-c7cccc(-n8ccccc8=O)c7)n6)CC5)CC4)CC3)c(F)c2)C(=O)N1` (stereo partly drawn) [Compound 410, trans-3-((3-fluoro-4-(4-((4-(4-((5-fluoro-4-(3-(2-oxopyridin-1(2H)-yl)phenyl)pyrimidin-2-yl)amino)cyclohexane-1-carbonyl)piperazin-1-yl)methyl)-4-hydroxypiperidin-1-yl)phenyl)amino)piperidine-2,6-dione], the DC50 is less than 500 nM. Regarding `O=C1CCC(Nc2ccc(N3CCN([C@H]4CC[C@H](C(=O)N[C@H]5CC[C@H](Nc6ncc(F)c(-c7cccc(N8CCOC8=O)c7)n6)CC5)CC4)CC3)c(F)c2)C(=O)N1` (stereo partly drawn) [Compound 411, trans-(1r,4R)-4-(4-(4-((2,6-dioxopiperidin-3-yl)amino)-2-fluorophenyl)piperazin-1-yl)-N-((1r,4R)-4-((5-fluoro-4-(3-(2-oxooxazolidin-3-yl)phenyl)pyrimidin-2-yl)amino)cyclohexyl)cyclohexane-1-carboxamide], the DC50 was more than 5000 nM. Then `O=C1CC[C@@H](Nc2ccc(N3CCN([C@H]4CC[C@H](C(=O)N[C@H]5CC[C@H](Nc6ncc(F)c(-c7cccc(N8CCCCC8=O)c7)n6)CC5)CC4)CC3)c(F)c2)C(=O)N1` [Compound 412, trans-(1r,4R)-4-(4-(4-((2,6-dioxopiperidin-3-yl)amino)-2-fluorophenyl)piperazin-1-yl)-N-((1r,4R)-4-((5-fluoro-4-(3-(2-oxopiperidin-1-yl)phenyl)pyrimidin-2-yl)amino)cyclohexyl)cyclohexane-1-carboxamide], with less than 500 nM. For the molecule `O=C1CCC(Nc2ccc(N3CCC(OC4CCN(C(=O)[C@H]5CC[C@H](Nc6ncc(F)c(-c7cccc(N8CCCCC8=O)c7)n6)CC5)CC4)CC3)c(F)c2)C(=O)N1` (stereo partly drawn) [Compound 413, trans-3-((3-fluoro-4-(4-((1-(4-((5-fluoro-4-(3-(2-oxopiperidin-1-yl)phenyl)pyrimidin-2-yl)amino)cyclohexane-1-carbonyl)piperidin-4-yl)oxy)piperidin-1-yl)phenyl)amino)piperidine-2,6-dione], the DC50 is less than 500 nM.

For the molecule `O=C1CCC(Nc2ccc(N3CCC(CC4CCN(C(=O)[C@H]5CC[C@H](Nc6ncc(F)c(-c7cccc(N8CCCCC8=O)c7)n6)CC5)CC4)CC3)c(F)c2)C(=O)N1` (stereo partly drawn) [Compound 414, trans-3-((3-fluoro-4-(4-((1-(-4-((5-fluoro-4-(3-(2-oxopiperidin-1-yl)phenyl)pyrimidin-2-yl)amino)cyclohexane-1-carbonyl)piperidin-4-yl)methyl)piperidin-1-yl)phenyl)amino)piperidine-2,6-dione], the DC50 was less than 500 nM. For the molecule `O=C1CCC(Nc2ccc(N3CCC(CN4CCN(C(=O)[C@H]5CC[C@H](Nc6ncc(F)c(-c7cccc(N8CCCCC8=O)c7)n6)CC5)CC4)CC3)c(F)c2)C(=O)N1` (stereo partly drawn) [Compound 415, trans-3-((3-fluoro-4-(4-((4-(4-((5-fluoro-4-(3-(2-oxopiperidin-1-yl)phenyl)pyrimidin-2-yl)amino)cyclohexane-1-carbonyl)piperazin-1-yl)methyl)piperidin-1-yl)phenyl)amino)piperidine-2,6-dione], the DC50 is less than 500 nM. With `O=C1CCC(Nc2ccc(N3CCN(C[C@H]4CC[C@H](CNC(=O)[C@H]5CC[C@H](Nc6ncc(F)c(-c7cccc(-n8ccccc8=O)c7)n6)CC5)CC4)CC3)c(F)c2)C(=O)N1` (stereo partly drawn) [Compound 416, trans-N-((trans-4-((4-(4-((2,6-dioxopiperidin-3-yl)amino)-2-fluorophenyl)piperazin-1-yl)methyl)cyclohexyl)methyl)-4-((5-fluoro-4-(3-(2-oxopyridin-1(2H)-yl)phenyl)pyrimidin-2-yl)amino)cyclohexane-1-carboxamide], the DC50 was less than 500 nM. `Cn1nc(C2CCC(=O)NC2=O)c2ccc(N3CCN(CC4CCN(C(=O)[C@H]5CC[C@H](Nc6ncc(F)c(-c7cccc(-c8ccc[nH]c8=O)c7)n6)CC5)CC4)CC3)cc21` (stereo partly drawn) [Compound 417, 3-(6-(4-((1-(trans-4-((5-fluoro-4-(3-(2-oxo-1,2-dihydropyridin-3-yl)phenyl)pyrimidin-2-yl)amino)cyclohexane-1-carbonyl)piperidin-4-yl)methyl)piperazin-1-yl)-1-methyl-1H-indazol-3-yl)piperidine-2,6-dione]: the DC50 is less than 500 nM. In the case of `O=C1CCC(Nc2ccc(N3CCN([C@H]4CC[C@H](C(=O)N[C@H]5CC[C@H](Nc6ncc(F)c(-c7cccc(N8CCCOC8=O)c7)n6)CC5)CC4)CC3)c(F)c2)C(=O)N1` (stereo partly drawn) [Compound 424, trans-(1r,4R)-4-(4-(4-((2,6-dioxopiperidin-3-yl)amino)-2-fluorophenyl)piperazin-1-yl)-N-((1r,4R)-4-((5-fluoro-4-(3-(2-oxo-1,3-oxazinan-3-yl)phenyl)pyrimidin-2-yl)amino)cyclohexyl)cyclohexane-1-carboxamide], the DC50 was less than 500 nM. Then `O=C1CCC(Nc2ccc(N3CCC(CC4CCN(C(=O)[C@H]5CC[C@H](Nc6ncc(F)c(-c7cccc(N8CCCOC8=O)c7)n6)CC5)CC4)CC3)c(F)c2)C(=O)N1` (stereo partly drawn) [Compound 425, trans-3-((3-fluoro-4-(4-((1-(-4-((5-fluoro-4-(3-(2-oxo-1,3-oxazinan-3-yl)phenyl)pyrimidin-2-yl)amino)cyclohexane-1-carbonyl)piperidin-4-yl)methyl)piperidin-1-yl)phenyl)amino)piperidine-2,6-dione], with less than 500 nM. For `O=C1CCC(Nc2ccc(N3CCN(CC4CCN(C(=O)[C@H]5CC[C@H](Nc6ncc(F)c(-c7cccc(N8CCCOC8=O)c7)n6)CC5)CC4)CC3)c(F)c2)C(=O)N1` (stereo partly drawn) [Compound 426, trans-3-[3-fluoro-4-[4-[[1-[4-[[5-fluoro-4-[3-(2-oxo-1,3-oxazinan-3-yl)phenyl]pyrimidin-2-yl]amino]cyclohexanecarbonyl]-4-piperidyl]methyl]piperazin-1-yl]anilino]piperidine-2,6-dione], the DC50 was less than 500 nM. Regarding `O=C1CCC(Nc2ccc(C3CCN(CC4CCN(C(=O)[C@H]5CC[C@H](Nc6ncc(F)c(-c7cccc(N8CCCOC8=O)c7)n6)CC5)CC4)CC3)c(F)c2)C(=O)N1` (stereo partly drawn) [Compound 427, trans-3-((3-fluoro-4-(1-((1-(4-((5-fluoro-4-(3-(2-oxo-1,3-oxazinan-3-yl)phenyl)pyrimidin-2-yl)amino)cyclohexane-1-carbonyl)piperidin-4-yl)methyl)piperidin-4-yl)phenyl)amino)piperidine-2,6-dione], the DC50 is less than 500 nM. `O=C1CCC(Nc2ccc(N3CCC(CN4CCN(C(=O)[C@H]5CC[C@H](Nc6ncc(F)c(-c7cccc(N8CCCOC8=O)c7)n6)CC5)CC4)CC3)c(F)c2)C(=O)N1` (stereo partly drawn) [Compound 428, trans-3-((3-fluoro-4-(4-((4-(4-((5-fluoro-4-(3-(2-oxo-1,3-oxazinan-3-yl)phenyl)pyrimidin-2-yl)amino)cyclohexane-1-carbonyl)piperazin-1-yl)methyl)piperidin-1-yl)phenyl)amino)piperidine-2,6-dione]: the DC50 is less than 500 nM.

For the origin of these results see patent US20260355196A1, “INHIBITORS AND DEGRADERS OF PIP4K PROTEIN” (Larkspur Biosciences, Inc., priority 2023, published 2026).
